The results in this text go back to US20240190891A1, “PYRIDO OXAZINE AMINO DERIVATIVES AS ALK5 INHIBITORS” (CHIESI FARMACEUTICI S.P.A., priority 2020, published 2024).

Where only a bound is given, the exact number is not on record here.

The assay addresses T1, human ALK5 (Homo sapiens, UniProt P36897).
T1 construct: human ALK5 (recombinant TGF β1 N-term GST-tagged, 80-end); GST (N); purchased
T1 sequence (P36897 80-503 limits assumed): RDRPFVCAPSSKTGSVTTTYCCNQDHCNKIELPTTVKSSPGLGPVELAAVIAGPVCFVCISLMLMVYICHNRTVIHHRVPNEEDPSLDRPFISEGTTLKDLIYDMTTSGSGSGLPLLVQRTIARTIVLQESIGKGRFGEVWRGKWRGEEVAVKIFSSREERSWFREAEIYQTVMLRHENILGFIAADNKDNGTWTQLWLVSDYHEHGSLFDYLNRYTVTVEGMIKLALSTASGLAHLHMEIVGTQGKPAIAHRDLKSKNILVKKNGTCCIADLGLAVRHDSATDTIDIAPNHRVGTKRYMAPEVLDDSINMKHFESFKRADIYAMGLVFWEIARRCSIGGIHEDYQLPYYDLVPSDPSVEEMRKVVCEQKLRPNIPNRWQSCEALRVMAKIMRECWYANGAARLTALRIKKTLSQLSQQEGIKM
Briefly: ADP-GLO Kinases assay, inhibitory activity on ALK5. Type of assay: biochemical. On the procedure: The enzymatic activity of compounds of the present invention was monitored measuring the formation of ADP using the ADP-GLO Kinases assay. Following the incubation of the purified enzyme, a substrate and ATP, the produced ADP was converted into ATP, which in turn was converted into light by Ultra-Glo Luciferase. The luminescent signal positively correlated with ADP amount and kinase activity. Briefly, the kinase reaction was performed by incubating 2.6 nM of the purified, commercially available human ALK5 (recombinant TGF β1 N-term GST-tagged, 80-end), a final concentration of TGFβ1 peptide 94.5 μM (Promega, T36-58) and ultra-pure ATP (Promega V915B). The ATP concentration was set at the Km value (concentration of substrate which permits the enzyme to achieve half maximal velocity (Vmax)) of ALK5 (5 μM). All reactions/incubations were performed at 25° C. Compound and ALK5 kinase were mixed and incubated for 15 mins. Reactions were initiated by addition of ATP at a final concentration in the assay of 0.83 μM. After an incubation of 150 min, the reaction was stopped, and ADP production detected with ADP-Glo kit according to manufacturer's indications. The assay was performed in 384-well format and was validated using a selection of reference compounds that was tested in 11 point concentration-response curve.
Compounds of the examples C1, C2 and C3 were tested in the same in vitro assay described above.

Where [1] appears, read: Table 10, purified recombinant human ALK5 2.6 nM, ADP-Glo, 25° C., 150 min incubation.
[2] abbreviates: Table 11, comparative examples, same in vitro assay.

Broadly, the IC50 is the midpoint of a concentration-inhibition curve.

Take `Fc1ccc(Cl)cc1-c1cc(Nc2ccnc3[nH]ccc23)c2c(n1)NCCO2` [Example 31, 6-(5-chloro-2-fluorophenyl)-N-{1H-pyrrolo[2,3-b]pyridin-4-yl}-2H,3H,4H-pyrido[3,2-b][1,4]oxazin-8-amine]: under setting [1], the IC50 was less than 1 nM.

With `CN1CCC(NC(=O)c2cnccc2Nc2cc(-c3cc(Cl)ccc3F)nc3c2OCCN3)CC1` [Example 32, 4-{[6-(5-chloro-2-fluorophenyl)-2H,3H,4H-pyrido[3,2-b][1,4]oxazin-8-yl]amino}-N-(1-methylpiperidin-4-yl)pyridine-3-carboxamide], the IC50 under setting [1] was less than 1 nM.

Take `CN1CCN(CCC(=O)Nc2cc(Nc3cc(-c4cc(Cl)ccc4F)nc4c3OCCN4)ccn2)CC1` [Example 33, N-(4-{[6-(5-chloro-2-fluorophenyl)-2H,3H,4H-pyrido[3,2-b][1,4]oxazin-8-yl]amino}pyridin-2-yl)-3-(4-methylpiperazin-1-yl)propanamide]: the IC50 under setting [1] was less than 1 nM. For `CN(C)CCC(=O)Nc1cc(Nc2cc(-c3cc(Cl)ccc3F)nc3c2OCCN3)ccn1` [Example 34, N-(4-{[6-(5-chloro-2-fluorophenyl)-2H,3H,4H-pyrido[3,2-b][1,4]oxazin-8-yl]amino}pyridin-2-yl)-3-(dimethylamino)propanamide], the half-inhibitory concentration (IC50) under setting [1] was less than 1 nM. As for `Fc1ccc(Cl)cc1-c1cc(Nc2ccnc3[nH]cnc23)c2c(n1)NCCO2` [Example 35, 6-(5-chloro-2-fluorophenyl)-N-{3H-imidazo[4,5-b]pyridin-7-yl}-2H,3H,4H-pyrido[3,2-b][1,4]oxazin-8-amine], the IC50 under setting [1] is less than 1 nM. On to `COC(=O)c1c[nH]c2nccc(Nc3cc(-c4cc(Cl)ccc4F)nc4c3OCCN4)c12` [Example 36, methyl 4-{[6-(5-chloro-2-fluorophenyl)-2H,3H,4H-pyrido[3,2-b][1,4]oxazin-8-yl]amino}-1H-pyrrolo[2,3-b]pyridine-3-carboxylate], for which the IC50 under setting [1] was less than 1 nM. For `O=C(NCCN(CCO)CCO)c1cnccc1Nc1cc(-c2cc(Cl)ccc2F)nc2c1OCCN2` [Example 37, N-{2-[bis(2-hydroxyethyl)amino]ethyl}-4-{[6-(5-chloro-2-fluorophenyl)-2H,3H,4H-pyrido[3,2-b][1,4]oxazin-8-yl]amino}pyridine-3-carboxamide], the IC50 under setting [1] was less than 1 nM. In the case of `COC(=O)c1cc2c(Nc3cc(-c4cc(Cl)ccc4F)nc4c3OCCN4)ccnc2[nH]1` [Example 38, methyl 4-{[6-(5-chloro-2-fluorophenyl)-2H,3H,4H-pyrido[3,2-b][1,4]oxazin-8-yl]amino}-1H-pyrrolo[2,3-b]pyridine-2-carboxylate], the IC50 under setting [1] was less than 1 nM.

Take `CN(C)CCC(=O)Nc1cnccc1Nc1cc(-c2cc(Cl)ccc2F)nc2c1OCCN2` [Example 39, N-(4-{[6-(5-chloro-2-fluorophenyl)-2H,3H,4H-pyrido[3,2-b][1,4]oxazin-8-yl]amino}pyridin-3-yl)-3-(dimethylamino)propanamide]: the IC50 under setting [1] was in the range of 5 to 10 nM. As for `Cc1cccc(-c2cc(Nc3ccnc4[nH]cnc34)c3c(n2)NCCO3)n1` [Example 40, N-{3H-imidazo[4,5-b]pyridin-7-yl}-6-(6-methylpyridin-2-yl)-2H,3H,4H-pyrido[3,2-b][1,4]oxazin-8-amine], the IC50 under setting [1] is less than 1 nM. For the compound `Cc1cccc(-c2cc(Nc3ccnc4[nH]ncc34)c3c(n2)NCCO3)n1` [Example 41, 6-(6-methylpyridin-2-yl)-N-{1H-pyrazolo[3,4-b]pyridin-4-yl}-2H,3H,4H-pyrido[3,2-b][1,4]oxazin-8-amine], the IC50 under setting [1] was less than 1 nM.

Take `Cc1cccc(-c2cc(Nc3ccncc3C(=O)NC3CCN(C)CC3)c3c(n2)NCCO3)n1` [Example 42, N-(1-methylpiperidin-4-yl)-4-{[6-(6-methylpyridin-2-yl)-2H,3H,4H-pyrido[3,2-b][1,4]oxazin-8-yl]amino}pyridine-3-carboxamide]: the half-maximal inhibitory concentration (IC50) under setting [1] lay within 1 to 5 nM. Turning to `CN(CCNC(=O)c1cnccc1Nc1cc(-c2cc(Cl)ccc2F)nc2c1OCCN2)C1COC1` [Example 43, 4-{[6-(5-chloro-2-fluorophenyl)-2H,3H,4H-pyrido[3,2-b][1,4]oxazin-8-yl]amino}-N-{2-[methyl(oxetan-3-yl)amino]ethyl}pyridine-3-carboxamide], the IC50 under setting [1] is 1 to 5 nM. Turning to `Cc1cccc(-c2cc(Nc3ccnc4[nH]ccc34)c3c(n2)NCCO3)n1` [Example 45, 6-(6-methylpyridin-2-yl)-N-{1H-pyrrolo[2,3-b]pyridin-4-yl}-2H,3H,4H-pyrido[3,2-b][1,4]oxazin-8-amine], the IC50 under setting [1] was less than 1 nM.

`CS(=O)(=O)N1CCN(CCNC(=O)c2cnccc2Nc2cc(-c3cc(Cl)ccc3F)nc3c2OCCN3)CC1` [Example 46, 4-{[6-(5-chloro-2-fluorophenyl)-2H,3H,4H-pyrido[3,2-b][1,4]oxazin-8-yl]amino}-N-[2-(4-methanesulfonylpiperazin-1-yl)ethyl]pyridine-3-carboxamide]: the IC50 under setting [1] was 1 to 5 nM. Take `CC(=O)N1CCN(CCNC(=O)c2cnccc2Nc2cc(-c3cc(Cl)ccc3F)nc3c2OCCN3)CC1` [Example 47, N-[2-(4-acetylpiperazin-1-yl)ethyl]-4-{[6-(5-chloro-2-fluorophenyl)-2H,3H,4H-pyrido[3,2-b][1,4]oxazin-8-yl]amino}pyridine-3-carboxamide]: the IC50 under setting [1] lay in the range of 1 to 5 nM.

Take `CN1CCC(CCNC(=O)c2cc3c(Nc4cc(-c5cc(Cl)ccc5F)nc5c4OCCN5)ccnc3[nH]2)CC1` [Example 48, 4-{[6-(5-chloro-2-fluorophenyl)-2H,3H,4H-pyrido[3,2-b][1,4]oxazin-8-yl]amino}-N-[2-(1-methylpiperidin-4-yl)ethyl]-1H-pyrrolo[2,3-b]pyridine-2-carboxamide]: under setting [1], the IC50 is less than 1 nM. Consider `CN(C)CCNC(=O)c1cc2c(Nc3cc(-c4cc(Cl)ccc4F)nc4c3OCCN4)ccnc2[nH]1` [Example 49, 4-{[6-(5-chloro-2-fluorophenyl)-2H,3H,4H-pyrido[3,2-b][1,4]oxazin-8-yl]amino}-N-[2-(dimethylamino)ethyl]-1H-pyrrolo[2,3-b]pyridine-2-carboxamide], for which the IC50 under setting [1] was less than 1 nM. For the compound `Fc1ccc(Cl)cc1-c1cc(-c2ccncc2)c2c(n1)NCCO2` [Example C1, 4-[6-(5-chloro-2-fluorophenyl)-2H,3H,4H-pyrido[3,2-b][1,4]oxazin-8-yl]pyridine, reference compound], the IC50 under setting [2] amounted to 6500 nM. The compound `Oc1ccc(-c2cc(-c3cc(Cl)ccc3F)nc3c2OCCN3)cc1` [Example C2, 4-[6-(5-chloro-2-fluorophenyl)-2H,3H,4H-pyrido[3,2-b][1,4]oxazin-8-yl]phenol, reference compound] had an IC50 under setting [2] of 1700 nM.
